Source: paper PMC8284453 (Antimicrobial Agents and Chemotherapy, 2021)
Converted amounts (≈) assume the structure as drawn. “And” between values parts separate entries of the source, which are not always exact repeats. Equal entries are not always repeated. Where two headings read alike, the source gives them in different places.

Columns and labels:
[1] = test system: Enterobacterales expressing class D oxacillinases (OXA-48/48-like); test: organism not typed; assay type: cell-based, E. coli, K. pneumoniae; settings: K. pneumoniae SI-C17 (OXA-48)
[2] = test system: isogenic strains of E. coli expressing Ambler class A, B, C, and D enzymes; test: microbe, parasite or virus in culture; assay type: cell-based, Escherichia coli
[3] = test system: E. coli ESBL4 (CTX-M-15); test: Broth microdilution MIC; assay type: cell-based; settings: Escherichia coli
[4] = test system: E. cloacae ECL01 (TEM-72, ACT-1, P99AmpC); test: Broth microdilution MIC; assay type: cell-based; settings: Enterobacter cloacae
[5] = test system: K. pneumoniae ATCC BAA-1705 (KPC-2); test: Broth microdilution MIC; assay type: cell-based; settings: Klebsiella pneumoniae, ATCCBAA1705
[6] = test system: K. pneumoniae 752286 (OXA-48); test: Broth microdilution MIC; assay type: cell-based; settings: Klebsiella pneumoniae
[7] = test system: E. cloacae ECL01 (TEM-72, ACT-1, P99AmpC); test: 24-h time-kill assay; assay type: cell-based; settings: Enterobacter cloacae; lowest concentration with ≥3-log10 CFU/ml reduction at 24 h; read-out: MBC
Protocol: (§1) In vitro antibacterial time-kill assay. […] Time-kill assays were performed in 14 ml glass tubes or deep-well storage plates with a bacterial inoculum in CAMHB of 5 × 10^5 CFU/ml. The tubes/plates were incubated at 37°C with shaking at 200 rpm, and aliquots were drawn at six time points (0, 2, 4, 6, 8, and 24 h) to conduct 0.5 log10 dilutions in CAMHB in 96-well plates that were incubated overnight at 37°C and used to ascertain viable bacterial counts. The lowest quantifiable amount by this method is 2 log10 CFU/ml.

[8] = test system: E. coli ESBL4 (CTX-M-15); test: 24-h time-kill assay; assay type: cell-based
Protocol: as §1

[9] = test system: K. pneumoniae 752286 (OXA-48); test: 24-h time-kill assay; assay type: cell-based; settings: Klebsiella pneumoniae, 24 h
Protocol: as §1

[10] = test system: K. pneumoniae ATCC BAA-1705 (KPC-2); test: 24-h time-kill assay; assay type: cell-based; settings: Klebsiella pneumoniae, ATCCBAA1705; lowest concentration with ≥3-log10 CFU/ml reduction at 24 h; read-out: MBC
Protocol: as §1

[11] = test system: Enterobacterales expressing class C cephalosporinases
[12] = test system: Enterobacterales expressing class C cephalosporinases; test: organism not typed

With `Nc1nc(/C(=C/CC(=O)O)C(=O)N[C@@H]2C(=O)N3C(C(=O)O)=CCS[C@H]23)cs1` [CTB, ceftibuten] as the compound, how does the MIC [1] read?
The MIC was no less than 64 µg/mL.

And the “Fold increase in MIC compared to vector control” value (from here on “Fold increase in MIC”) [2]?
Its value is 16 and 32.

What about the “Fold increase in MIC” value ([2]; E. coli expressing ACT-17 (class C), inhibitor fixed at 4 μg/ml) of the same compound?
Its value is 1,024.

What about the “Fold increase in MIC” value ([2]; E. coli expressing CMY-2 (class C), inhibitor fixed at 4 μg/ml) of the same compound?
The value was 1,024.

And the “Fold increase in MIC” value ([2]; E. coli expressing CMY-42 (class C), inhibitor fixed at 4 μg/ml)?
The value was ≥1,024.

What about the “Fold increase in MIC” value ([2]; E. coli expressing CTX-M-15 (class A), inhibitor fixed at 4 μg/ml) of the same compound?
Its value is 64.

What about the “Fold increase in MIC” value ([2]; E. coli expressing GES-5 (class A), inhibitor fixed at 4 μg/ml) of the same compound?
Its value is 8.

What about the “Fold increase in MIC” value ([2]; E. coli expressing NDM-1 (class B), inhibitor fixed at 4 μg/ml) of the same compound?
Its value is ≥1,024.

And the “Fold increase in MIC” value ([2]; E. coli expressing OXA-23 (class D), inhibitor fixed at 4 μg/ml)?
The value was 2.

What about the “Fold increase in MIC” value ([2]; E. coli expressing OXA-48 (class D), inhibitor fixed at 4 μg/ml) of the same compound?
The value was 4.

What about the “Fold increase in MIC” value ([2]; E. coli expressing OXA-163 (class D), inhibitor fixed at 4 μg/ml) of the same compound?
The value was 32.

What about the “Fold increase in MIC” value ([2]; E. coli expressing OXA-181 (class D), inhibitor fixed at 4 μg/ml) of the same compound?
Its value is 2.

And the “Fold increase in MIC” value ([2]; E. coli expressing P99/AmpC (class C), inhibitor fixed at 4 μg/ml)?
Its value is ≥1,024.

And the “Fold increase in MIC” value ([2]; E. coli expressing PER-1 (class A), inhibitor fixed at 4 μg/ml)?
The value was 1,024.

What about the “Fold increase in MIC” value ([2]; E. coli expressing SHV-5 (class A), inhibitor fixed at 4 μg/ml) of the same compound?
The value was 128.

What about the “Fold increase in MIC” value ([2]; E. coli expressing SHV-12 (class A), inhibitor fixed at 4 μg/ml) of the same compound?
The value was 256.

What about the “Fold increase in MIC” value ([2]; E. coli expressing TEM-10 (class A), inhibitor fixed at 4 μg/ml, modal MIC, 4 replicates) of the same compound?
The value was 4.

What about the “Fold increase in MIC” value ([2]; E. coli expressing VEB-9 (class A), inhibitor fixed at 4 μg/ml) of the same compound?
Its value is ≥1,024.

What about the MIC ([2]; Escherichia coli, read-out: Vector control MIC) of the same compound?
The MIC was 1 µg/mL (≈ 2.44 µM).

What about the MIC [3] of the same compound?
The MIC was 32 µg/mL (≈ 78 µM).

And the MIC [4]?
The MIC was 64 µg/mL (≈ 156 µM).

What about the MIC [5] of the same compound?
Its MIC is 16 µg/mL (≈ 39 µM).

What about the MIC [6] of the same compound?
The MIC was 128 µg/mL (≈ 312 µM).

And the MBC [7]?
Its MBC is greater than 32 µg/mL.

What about the MBC ([8]; Escherichia coli, lowest concentration with ≥3-log10 CFU/ml reduction at 24 h, read-out: MBC) of the same compound?
Its MBC is greater than 32 µg/mL.

What about the “outcome of 24-h time-kill assay” value ([8]; Fig. 3a, CTB 2 μg/ml with BLI at 4 μg/ml, CTB alone 8 μg/ml, amoxicillin 8/clavulanic acid 4 μg/ml, penems 2 μg/ml) of the same compound?
The value was “initial killing, but the strains grew to control levels by 24 h”.

What about the MBC [9] of the same compound?
Its MBC is no less than 128 µg/mL.

What about the MBC [10] of the same compound?
Its MBC is 16 µg/mL (≈ 39 µM).

And the MIC90 ([11]; 25 isolates, BLI fixed at 4 μg/ml, AMC 2:1)?
Its MIC90 is no less than 64 µg/mL.

What about the MIC ([11]; C. freundii 134390 (AmpC, TEM-1)) of the same compound?
Its MIC is 4 µg/mL (≈ 9.75 µM).

What about the MIC ([11]; E. aerogenes 110099 (AmpC, SHV-12)) of the same compound?
Its MIC is 32 µg/mL (≈ 78 µM).

What about the MIC ([11]; E. aerogenes 111707 (AmpC, TEM-1)) of the same compound?
Its MIC is 2 µg/mL (≈ 4.87 µM).

And the MIC ([11]; E. aerogenes 111902 (AmpC, TEM-1))?
Its MIC is no less than 64 µg/mL.

And the MIC ([11]; E. coli 128 (AmpC, SHV-12, TEM-1, Toho-2))?
The MIC was 2 µg/mL (≈ 4.87 µM).

And the MIC ([11]; E. coli 3102 (AmpC, CTX-M-15, TEM-1))?
Its MIC is 32 µg/mL (≈ 78 µM).

And the MIC ([11]; E. coli CH1 (AmpC, CTX-M-15, SHV-1, SHV-5, TEM-1))?
Its MIC is no less than 64 µg/mL.

And the MIC ([11]; E. coli EC469 (AmpC, SHV-12, TEM-1))?
The MIC was 2 µg/mL (≈ 4.87 µM).

And the MIC ([11]; E. coli J53 (AmpC, SHV-5, TEM-1))?
The MIC was 8 µg/mL (≈ 19.5 µM).

And the MIC ([11]; E. coli SI-P026TC (CMY-2, TEM-1))?
Its MIC is no less than 64 µg/mL.

What about the MIC ([11]; E. coli SI-PO26 (AmpC, CMY-2, TEM-1)) of the same compound?
Its MIC is no less than 64 µg/mL.

And the MIC ([11]; K. pneumoniae 129032 (MOX-2, SHV-12, TEM-1))?
The MIC was 16 µg/mL (≈ 39 µM).

What about the MIC ([11]; K. pneumoniae 178279 (AmpC, SHV-12, TEM-1)) of the same compound?
The MIC was 8 µg/mL (≈ 19.5 µM).

And the MIC ([11]; K. pneumoniae 212027 (AmpC, FOX-5, TEM-1))?
Its MIC is 16 µg/mL (≈ 39 µM).

What about the MIC ([11]; K. pneumoniae 217917 (CMY-2, TEM-1)) of the same compound?
Its MIC is 8 µg/mL (≈ 19.5 µM).

What about the MIC ([11]; K. pneumoniae 301313 (AmpC, SHV-12, TEM-1)) of the same compound?
The MIC was no less than 64 µg/mL.

What about the MIC ([11]; K. pneumoniae 398845 (CMY-2, SHV-12, TEM-1)) of the same compound?
The MIC was 16 µg/mL (≈ 39 µM).

And the MIC ([11]; K. pneumoniae SI-F100 (CMY-2, SHV-5, TEM-1))?
Its MIC is 2 µg/mL (≈ 4.87 µM).

What about the MIC ([11]; P. mirabilis SI-F014 (AmpC, TEM-72)) of the same compound?
The MIC was no less than 64 µg/mL.

What about the MIC ([11]; S. marcescens 132253 (AmpC, CTX-M-3, OXA-1, SHV-12, TEM-1)) of the same compound?
The MIC was no less than 64 µg/mL.

What about the MIC ([11]; S. marcescens 134434 (AmpC, SHV-12, TEM-1)) of the same compound?
Its MIC is 32 µg/mL (≈ 78 µM).

What about the MIC ([11]; S. marcescens 142397 (AmpC, SHV-7, TEM-1)) of the same compound?
The MIC was no less than 64 µg/mL.

And the MIC ([11]; S. marcescens 156212 (AmpC, SHV-12, TEM-1))?
The MIC was 8 µg/mL (≈ 19.5 µM).

And the MIC ([11]; S. marcescens 192478 (AmpC, SHV-12, TEM-1))?
Its MIC is 8 µg/mL (≈ 19.5 µM).

What about the MIC ([11]; S. marcescens 218068 (AmpC, SHV-7, TEM-1)) of the same compound?
The MIC was 32 µg/mL (≈ 78 µM).

What about the MIC50 [12] of the same compound?
Its MIC50 is 16 µg/mL (≈ 39 µM).

And the MIC90 [12]?
The MIC90 was no less than 64 µg/mL.
